Source: the supplement of paper PMC10307832

What was measured:
Assay in all cases: relative viability (nuclei count vs DMSO), 5 days (fraction); higher = more cells survive
[1] = compound: C1=CC2=C(C=C(C(=C2N=C1)O)N=NC3=CC4=C(C=C3)C=C(C=C4)S(=O)(=O)O)S(=O)(=O)O + Cc1cc(Nc2cc(N3CCN(C)CC3)nc(Sc3ccc(NC(=O)C4CC4)cc3)n2)n[nH]1 [Tozasertib] (partner 0.1 µM)
How it was run: (§1)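 Relative viability is defined as nuclei in treated wells over nuclei in vehicle wells. Duplicate plates were run and medians reported. Lung cancer cell lines in 1536-well plates were dosed by pin tool one day after seeding, with one drug or with a fixed anchor-drug dose plus five library-drug doses (not always all listed) in √10 steps, and nuclei were counted after 5 days.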

AT-7519 + Navitoclax = compound: O=C(NC1CCNCC1)c1n[nH]cc1NC(=O)c1c(Cl)cccc1Cl [AT-7519] + CC1(C)CCC(c2ccc(Cl)cc2)=C(CN2CCN(c3ccc(C(=O)NS(=O)(=O)c4ccc(N[C@H](CCN5CCOCC5)CSc5ccccc5)c(S(=O)(=O)C(F)(F)F)c4)cc3)CC2)C1 [Navitoclax] (partner 0.5 µM)
How it was run: as §1

AT-7519 + Crizotinib = compound: O=C(NC1CCNCC1)c1n[nH]cc1NC(=O)c1c(Cl)cccc1Cl [AT-7519] + C[C@@H](Oc1cc(-c2cnn(C3CCNCC3)c2)cnc1N)c1c(Cl)ccc(F)c1Cl [Crizotinib] (partner 1 µM)
How it was run: as §1

AT-7519 + Pemetrexed = compound: O=C(NC1CCNCC1)c1n[nH]cc1NC(=O)c1c(Cl)cccc1Cl [AT-7519] + Nc1nc2[nH]cc(CCc3ccc(C(=O)N[C@@H](CCC(=O)O)C(=O)O)cc3)c2c(=O)[nH]1 [Pemetrexed] (partner 0.2 µM)
How it was run: as §1

Cell Line | relative viability ([1]; first compound 0.253 µM) | relative viability ([1]; first compound 0.8 µM) | relative viability ([1]; first compound 2.53 µM) | relative viability ([1]; first compound 8 µM) | relative viability (AT-7519 + Navitoclax; first compound 0.01 µM) | relative viability (AT-7519 + Navitoclax; first compound 0.03162 µM) | relative viability (AT-7519 + Navitoclax; first compound 0.3162 µM) | relative viability (AT-7519 + Navitoclax; first compound 1 µM) | relative viability (AT-7519 + Crizotinib; first compound 0.01 µM) | relative viability (AT-7519 + Crizotinib; first compound 0.03162 µM) | relative viability (AT-7519 + Crizotinib; first compound 0.3162 µM) | relative viability (AT-7519 + Crizotinib; first compound 1 µM) | relative viability (AT-7519 + Pemetrexed; first compound 0.01 µM) | relative viability (AT-7519 + Pemetrexed; first compound 0.03162 µM) | relative viability (AT-7519 + Pemetrexed; first compound 0.3162 µM) | relative viability (AT-7519 + Pemetrexed; first compound 1 µM) | relative viability ([1]; first compound 0.08 µM)
HCC-44 | 0.853 | 0.999 | 1.03 | 0.873 | 1.01 | 0.86 | 0.997 | 0.958 | 0.773 | 0.781 | 0.903 | 0.778 | 0.622 | 0.696 | 0.65 | 0.703 | 
HCC-827 | 0.397 | 0.418 | 0.448 | 0.432 | 0.991 | 1.1 | 0.996 | 0.995 | 0.895 | 0.945 | 0.862 | 0.855 | 0.301 | 0.247 | 0.276 | 0.243 | 0.448
NCI-H1623 | 0.416 | 0.458 | 0.506 | 0.428 |  |  |  |  |  |  |  |  |  |  |  |  | 0.432
NCI-H2347 | 0.57 | 0.52 | 0.741 | 0.573 | 0.741 | 0.675 | 0.745 | 0.59 | 0.627 | 0.706 | 0.645 | 0.573 | 0.462 | 0.367 | 0.398 | 0.453 | 0.59
PC-14 | 0.574 | 0.55 | 0.646 | 0.594 | 0.994 | 1.03 | 0.952 | 0.719 | 0.755 | 0.911 | 0.818 | 0.811 | 0.138 | 0.135 | 0.118 | 0.103 | 0.607
NCI-H1651 | 0.727 | 0.657 | 0.764 | 0.562 | 0.983 | 1.08 | 0.997 | 0.882 | 0.858 | 0.846 | 0.909 | 0.847 | 0.677 | 0.562 | 0.556 | 0.744 | 0.742
HARA | 0.107 | 0.102 | 0.111 | 0.117 | 1.07 | 1.12 | 1.12 | 0.97 | 1.03 | 1.1 | 0.974 | 0.786 | 0.234 | 0.298 | 0.25 | 0.296 | 0.105
NCI-H1650 | 0.347 | 0.45 | 0.407 | 0.231 | 1.32 | 1.21 | 1.2 | 0.291 | 1.26 | 0.956 | 0.576 | 0.169 | 0.376 | 0.35 | 0.323 | 0.197 | 0.4
NCI-H1395 | 0.739 | 0.695 | 0.745 | 0.772 | 1.62 | 1.17 | 1.03 | 0.831 |  |  |  |  | 0.847 | 0.896 | 0.899 | 0.558 | 0.788
LU99A | 0.267 | 0.272 | 0.323 | 0.273 | 0.846 | 0.782 | 0.745 | 0.382 | 0.579 | 0.539 | 0.517 | 0.357 | 0.215 | 0.199 | 0.165 | 0.198 | 0.289
NCI-H1355 | 0.608 | 0.627 | 0.595 | 0.641 | 0.984 | 0.873 | 1.09 | 0.865 | 1.1 | 1.02 | 1.13 | 0.943 | 1.04 | 1.03 | 1.06 | 0.974 | 0.629
HCC-78 | 0.345 | 0.469 | 0.488 | 0.349 | 0.743 | 0.664 | 0.901 | 0.685 | 0.33 | 0.324 | 0.331 | 0.42 | 0.916 | 0.885 | 0.88 | 0.884 | 0.41
NCI-H1563 |  |  |  |  |  |  |  |  | 0.857 | 0.809 | 1.02 | 0.702 | 0.743 | 0.868 | 0.81 | 0.807 | 
HCC-15 | 0.458 | 0.422 | 0.441 | 0.45 | 0.632 | 0.639 | 0.647 | 0.351 | 0.864 | 0.718 | 0.741 | 0.502 | 0.217 | 0.225 | 0.205 | 0.204 | 0.462
EKVX | 0.44 | 0.34 | 0.446 | 0.389 | 0.772 | 0.881 | 0.923 | 0.876 | 0.933 | 0.85 | 0.699 | 0.894 | 0.423 | 0.342 | 0.246 | 0.463 | 0.458
NCI-H2087 | 0.258 | 0.238 | 0.237 | 0.267 | 1.03 | 0.964 | 1.04 | 0.0625 | 0.801 | 0.868 | 0.894 | 0.171 | 0.612 | 0.536 | 0.568 | 0.344 | 0.237
LK-2 | 0.189 | 0.18 | 0.178 | 0.148 | 0.76 | 0.75 | 0.77 | 0.745 | 0.229 | 0.235 | 0.251 | 0.227 | 0.305 | 0.259 | 0.212 | 0.201 | 0.174
NCI-H1437 | 0.392 | 0.407 | 0.408 | 0.287 | 1.03 | 1.08 | 1.1 | 0.455 | 0.93 | 1.06 | 0.9 | 0.361 | 0.325 | 0.326 | 0.35 | 0.229 | 0.421
COR-L23 | 0.173 | 0.247 | 0.197 | 0.233 | 1.24 | 1.15 | 0.774 | 0.138 | 0.639 | 0.632 | 0.653 | 0.132 | 0.182 | 0.184 | 0.211 | 0.173 | 0.22
ABC-1 | 0.199 | 0.176 | 0.167 | 0.132 |  |  |  |  | 1.06 | 1.35 | 0.591 | 0.183 |  |  |  |  | 0.155
